≈ marks a conversion by molar mass, not a printed value.
Columns and labels:
physchem = conditions: pH 7.4, Kinetic Solubility
Source text: DPI = 4,5-Diphenylimidazole
(2 pictures or pasted objects on this page, not shown here)

human GPR84 = biological target: T1, human GPR84 (Homo sapiens, UniProt P04899+Q9NQS5); assay: biochemical; format: biochemical; conditions: [35S]GTPγS assay; negative log of the IC50 in molar; mean ± SEM
T1 construct: expressed in transfected cells; host or cells: Flp-In T-REx 293 cells, doxycycline-induced; membrane preparations
T1 sequence (Q9NQS5+P04899 fused): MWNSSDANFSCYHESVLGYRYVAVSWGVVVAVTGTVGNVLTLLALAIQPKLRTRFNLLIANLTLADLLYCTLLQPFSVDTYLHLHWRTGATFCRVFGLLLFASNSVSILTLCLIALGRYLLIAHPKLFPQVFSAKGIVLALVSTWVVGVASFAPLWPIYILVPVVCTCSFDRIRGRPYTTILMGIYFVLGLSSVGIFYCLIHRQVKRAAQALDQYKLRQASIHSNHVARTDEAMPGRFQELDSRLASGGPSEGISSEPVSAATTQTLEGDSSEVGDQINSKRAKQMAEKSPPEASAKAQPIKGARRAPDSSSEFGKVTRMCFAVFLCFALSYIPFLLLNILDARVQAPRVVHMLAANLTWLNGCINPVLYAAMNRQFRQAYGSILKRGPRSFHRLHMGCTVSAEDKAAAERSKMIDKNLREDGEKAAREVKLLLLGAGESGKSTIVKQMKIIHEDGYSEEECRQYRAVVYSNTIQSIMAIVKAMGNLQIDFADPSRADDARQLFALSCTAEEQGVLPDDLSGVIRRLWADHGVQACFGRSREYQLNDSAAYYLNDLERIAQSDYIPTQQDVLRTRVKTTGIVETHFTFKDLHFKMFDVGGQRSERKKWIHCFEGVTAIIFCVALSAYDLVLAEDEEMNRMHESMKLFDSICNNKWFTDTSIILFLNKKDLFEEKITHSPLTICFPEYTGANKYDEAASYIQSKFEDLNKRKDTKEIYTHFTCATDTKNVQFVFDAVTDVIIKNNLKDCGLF

[1] = Mean, PBS pH7.4 in 2% DMSO by LC-MS
[2] = Mean, PBS pH7.4 in 2% DMSO by plate reader
[3] = R=1, PBS pH7.4 in 2% DMSO by LC-MS, replicate 1
[4] = R=1, PBS pH7.4 in 2% DMSO by plate reader, replicate 1
[5] = R=2, PBS pH7.4 in 2% DMSO by LC-MS, replicate 2
[6] = R=2, PBS pH7.4 in 2% DMSO by plate reader, replicate 2

| Compound | GTPγS (pIC50) (human GPR84) | also measured |
| --- | --- | --- |
| c1ccc(-c2nc[nH]c2-c2ccccc2)cc1 [DPI, 4,5-Diphenylimidazole, reference compound] |  | solubility kinetic (physchem; [1]): 27 µM (≈ 5.95 µg/mL); solubility kinetic (physchem; [2]): 30 µM (≈ 6.61 µg/mL); solubility kinetic (physchem; [3]): 25 µM (≈ 5.51 µg/mL); solubility kinetic (physchem; [4]): 28 µM (≈ 6.17 µg/mL); solubility kinetic (physchem; [5]): 28 µM (≈ 6.17 µg/mL); solubility kinetic (physchem; [6]): 32 µM (≈ 7.05 µg/mL) |
| O=C(c1ccc(-c2nnc(Cc3c[nH]c4ccccc34)nc2-c2ccccc2)cc1)N1CCOCC1 [Compound 74, (4-(3-((1H-Indol-3-yl)methyl)-5-phenyl-1,2,4-triazin-6-yl)phenyl)(morpholino)methanone] | 7.19 ± 0.07 |  |
| CC(=O)OCc1ccc(-c2nnc(Cc3c[nH]c4ccccc34)nc2-c2ccccc2)cc1 [Compound 38, 4-(3-((1H-Indol-3-yl)methyl)-5-phenyl-1,2,4-triazin-6-yl)benzyl Acetate] | 8.06 ± 0.27 |  |
| CN(C)CCNC(=O)c1ccc(-c2nnc(Cc3c[nH]c4ccccc34)nc2-c2ccccc2)cc1 [Compound 75, 4-(3-((1H-Indol-3-yl)methyl)-5-phenyl-1,2,4-triazin-6-yl)-N-(2-(dimethylamino)ethyl)benzamide] | 5.54 ± 0.10 |  |
| Cc1cc(Cc2nnc(-c3ccccc3)c(-c3ccccc3)n2)n[nH]1 [Compound 23, 3-((5-Methyl-1H-pyrazol-3-yl)methyl)-5,6-diphenyl-1,2,4-triazine] | 4.97 ± 0.23 |  |
| CN1CCN(C(=O)c2ccc(-c3nnc(Cc4c[nH]c5ccccc45)nc3-c3ccccc3)cc2)CC1=O [Compound 80, 4-(4-(3-((1H-Indol-3-yl)methyl)-5-phenyl-1,2,4-triazin-6-yl)benzoyl)-1-methylpiperazin-2-one] | 6.69 ± 0.04 |  |
| c1csc(-c2nnc(Cc3c[nH]c4ccccc34)nc2-c2cccs2)c1 [Compound 11, 3-((5,6-Di(thiophen-2-yl)-1,2,4-triazin-3-yl)methyl)-1H-indole] | 7.62 ± 0.05 |  |
| COC(=O)c1ccc(-c2nc(Cc3c[nH]c4cnccc34)nnc2-c2ccccc2)cc1 [Compound 65, Methyl 4-(3-((1H-Pyrrolo[2,3-c]pyridin-3-yl)methyl)-6-phenyl-1,2,4-triazin-5-yl)benzoate] | 7.37 ± 0.33 |  |
| CC(=O)NCc1ccc(-c2nnc(Cc3c[nH]c4ccccc34)nc2-c2ccccc2)cc1 [Compound 46, N-(4-(3-((1H-Indol-3-yl)methyl)-5-phenyl-1,2,4-triazin-6-yl)benzyl)acetamide] | 7.98 ± 0.06 |  |
| c1ccc(-c2nnc(Cc3c[nH]c4cnccc34)nc2-c2cnccn2)cc1 [Compound 59, 3-((6-Phenyl-5-(pyrazin-2-yl)-1,2,4-triazin-3-yl)methyl)-1H-pyrrolo[2,3-c]pyridine] | 5.38 ± 0.12 |  |
| c1ccc(-c2nc(Cc3c[nH]c4cnccc34)nnc2-c2ccnnc2)cc1 [Compound 62, 3-((5-Phenyl-6-(pyridazin-4-yl)-1,2,4-triazin-3-yl)methyl)-1H-pyrrolo[2,3-c]pyridine] | 6.21 ± 0.04 |  |
| Methyl 3-(3-((1H-Indol-3-yl)methyl)-5-phenyl-1,2,4-triazin-6-yl)benzoate [Compound 53] | 6.40 ± 0.05 |  |
| CS(=O)(=O)NCc1ccc(-c2nnc(Cc3c[nH]c4ccccc34)nc2-c2ccccc2)cc1 [Compound 48, N-(4-(3-((1H-Indol-3-yl)methyl)-5-phenyl-1,2,4-triazin-6-yl)benzyl)methanesulfonamide] | 7.61 ± 0.06 |  |
| OCc1ccc(-c2nc(Cc3c[nH]c4ccccc34)nnc2-c2ccccc2)cc1 [Compound 39, (4-(3-((1H-Indol-3-yl)methyl)-6-phenyl-1,2,4-triazin-5-yl)phenyl)methanol] | 7.16 ± 0.04 |  |
| c1ccc(-c2nnc(Cc3c[nH]c4ccccc34)nc2-c2ccc(CN3CCOCC3)cc2)cc1 [Compound 41, 4-(4-(3-((1H-Indol-3-yl)methyl)-6-phenyl-1,2,4-triazin-5-yl)benzyl)morpholine] | 7.51 ± 0.28 |  |
| O=C(NCCO)c1ccc(-c2nnc(Cc3c[nH]c4cnccc34)nc2-c2ccccc2)cc1 [Compound 70, 4-(3-((1H-Pyrrolo[2,3-c]pyridin-3-yl)methyl)-5-phenyl-1,2,4-triazin-6-yl)-N-(2-hydroxyethyl)benzamide] | 7.04 ± 0.07 |  |
| CNC(=O)c1ccc(-c2nc(Cc3c[nH]c4ccncc34)nnc2-c2ccccc2)cc1 [Compound 71, 4-(3-((1H-Pyrrolo[3,2-c]pyridin-3-yl)methyl)-6-phenyl-1,2,4-triazin-5-yl)-N-methylbenzamide] | 5.64 ± 0.05 |  |

| Compound | GTPγS (pIC50) (human GPR84) | also measured |
| --- | --- | --- |
| c1ccc(-c2nnc(Cc3c[nH]c4cnccc34)nc2-c2ccc(CN3CCOCC3)cc2)cc1 [Compound 63, 4-(4-(3-((1H-Pyrrolo[2,3-c]pyridin-3-yl)methyl)-6-phenyl-1,2,4-triazin-5-yl)benzyl)morpholine] | 7.27 ± 0.06 |  |
| CC(=O)NCc1ccc(-c2nc(Cc3c[nH]c4ccccc34)nnc2-c2ccccc2)cc1 [Compound 45, N-(4-(3-((1H-Indol-3-yl)methyl)-6-phenyl-1,2,4-triazin-5-yl)benzyl)acetamide] | 6.93 ± 0.06 |  |
| CS(=O)(=O)c1ccc(-c2nnc(Cc3c[nH]c4ccccc34)nc2-c2ccccc2)cc1 [Compound 36, 3-((6-(4-(Methylsulfonyl)phenyl)-5-phenyl-1,2,4-triazin-3-yl)methyl)-1H-indole] | 6.18 ± 0.04 |  |
| COc1ccc(-c2nnc(Cc3cn(C)c4ccccc34)nc2-c2ccc(OC)cc2)cc1 [Compound 13, 3-((5,6-Bis(4-methoxyphenyl)-1,2,4-triazin-3-yl)methyl)-1-methyl-1H-indole] | <4.70 |  |
| CC(=O)N1CCN(c2ccc(OCC3COC(Cn4ccnc4)(c4ccc(Cl)cc4Cl)O3)cc2)CC1 (stereo not shown) [Ketoconazole, reference compound] |  | solubility kinetic (physchem; [1]): 103 µM (≈ 54.7 µg/mL); solubility kinetic (physchem; [2]): 129 µM (≈ 68.6 µg/mL); solubility kinetic (physchem; [3]): 101 µM (≈ 53.7 µg/mL); solubility kinetic (physchem; [4]): 128 µM (≈ 68 µg/mL); solubility kinetic (physchem; [5]): 105 µM (≈ 55.8 µg/mL); solubility kinetic (physchem; [6]): 129 µM (≈ 68.6 µg/mL) |
| CC(=O)NCCNC(=O)c1ccc(-c2nnc(Cc3c[nH]c4ccccc34)nc2-c2ccccc2)cc1 [Compound 79, 4-(3-((1H-Indol-3-yl)methyl)-5-phenyl-1,2,4-triazin-6-yl)-N-(2-acetamidoethyl)benzamide] | 6.26 ± 0.06 |  |
| c1ccc(-c2nc(Cc3c[nH]c4cnccc34)nnc2-c2ccc(CN3CCOCC3)cc2)cc1 [Compound 64, 4-(4-(3-((1H-Pyrrolo[2,3-c]pyridin-3-yl)methyl)-5-phenyl-1,2,4-triazin-6-yl)benzyl)morpholine] | 8.33 ± 0.15 |  |
| CC(=O)OCc1ccc(-c2nc(Cc3c[nH]c4ccccc34)nnc2-c2ccccc2)cc1 [Compound 37, 4-(3-((1H-Indol-3-yl)methyl)-6-phenyl-1,2,4-triazin-5-yl)benzyl Acetate] | 8.30 ± 0.35 |  |
| CN1CCN(C(=O)c2ccc(-c3nnc(Cc4c[nH]c5ccccc45)nc3-c3ccccc3)cc2)CC1 [Compound 77, (4-(3-((1H-Indol-3-yl)methyl)-5-phenyl-1,2,4-triazin-6-yl)phenyl)(4-methylpiperazin-1-yl)methanone] | 5.95 ± 0.10 |  |
| FC(F)(F)Oc1ccccc1-c1cnc(Cc2c[nH]c3ccccc23)nn1 [Compound 27, 3-((6-(2-(Trifluoromethoxy)phenyl)-1,2,4-triazin-3-yl)methyl)-1H-indole] | 5.59 ± 0.13 |  |
| COC(=O)c1ccc(-c2nnc(Cc3c[nH]c4cnccc34)nc2-c2ccccc2)cc1 [Compound 66, Methyl 4-(3-((1H-Pyrrolo[2,3-c]pyridin-3-yl)methyl)-5-phenyl-1,2,4-triazin-6-yl)benzoate] | 7.02 ± 0.06 |  |
| c1ccc(-c2nc(Cc3c[nH]c4ccccc34)nnc2-c2cccnn2)cc1 [Compound 31, 3-((5-Phenyl-6-(pyridazin-3-yl)-1,2,4-triazin-3-yl)methyl)-1H-indole] | 6.85 ± 0.03 |  |
| CCCCCc1nnc(-c2ccccc2)c(-c2ccccc2)n1 [Compound 21, 3-Pentyl-5,6-diphenyl-1,2,4-triazine] | 5.12 ± 0.05 |  |
| CNC(=O)c1ccc(-c2nnc(Cc3c[nH]c4ccncc34)nc2-c2ccccc2)cc1 [Compound 72, 4-(3-((1H-Pyrrolo[3,2-c]pyridin-3-yl)methyl)-5-phenyl-1,2,4-triazin-6-yl)-N-methylbenzamide] | 6.35 ± 0.06 |  |
| O=C(O)c1cccc(-c2nc(Cc3c[nH]c4ccccc34)nnc2-c2ccccc2)c1 [Compound 55, 3-(3-((1H-Indol-3-yl)methyl)-6-phenyl-1,2,4-triazin-5-yl)benzoic Acid] | 4.99 ± 0.32 |  |
| CN(C)Cc1ccc(-c2nc(Cc3c[nH]c4ccccc34)nnc2-c2ccccc2)cc1 [Compound 43, 1-(4-(3-((1H-Indol-3-yl)methyl)-6-phenyl-1,2,4-triazin-5-yl)phenyl)-N,N-dimethylmethanamine] | 6.20 ± 0.05 |  |

— article PMC9421653 (Journal of Medicinal Chemistry, 2022)
